Source: patent publication US12723063B2, “GIPR-agonist compounds” (Eli Lilly and Company, priority 2019, dated 2026)
*1 amine or outer side, *2 acyl side, *3 side chain or, on linkers, in order; H or OH if unused. Where a SMILES comes first, the peptide text is derived from it. Side-chain parts run from the residue outwards. [ ]: non-standard residue; d: D form. The star is where a group is joined. C20 diacid = O=C(O)CCCCCCCCCCCCCCCCCCC(=O)*; γGlu = O=C(O)[C@H](CCC(=O)[*:2])N[*:1]; αMeL = CC(C)C[C@](C)(N)C(=O)O; AEEA = NCCOCCOCC(=O)O; Aib = CC(C)(N)C(=O)O

Legend:
[1] = target: T1, human GLP-1 receptor (GLP-1R) (Homo sapiens, UniProt P43220); experiment: cAMP functional assay (HTRF) in HEK293 cells in presence of 0.1% casein; type: cell-based; conditions: HEK293 cells expressing human GLP-1R, geometric mean, read-out: hGLP1R cAMP Rel EC50 nM (SEM, n)
T1 construct: expressed in transfected cells; host or cells: HEK293

[2] = target: T2, human GLP-1R (Homo sapiens, UniProt P43220); experiment: [125I]-GLP-1 binding, SPA with WGA beads, 0.1% bacitracin; conditions: geometric mean, read-out: hGLP1R Ki
T2 construct: expressed in transfected cells; crude membranes
How it was run: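 Binding buffer was 25 mM HEPES pH 7.4 with 2.5 mM CaCl2, 1 mM MgCl2, 0.1% (w/v) bacitracin, 0.003% Tween-20 and EDTA-free protease inhibitors. Four-parameter regression gave IC50, converted to Ki (geometric mean, SEM, n independent days).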

[3] = target: T3, human GcgR (Homo sapiens, UniProt P47871); experiment: [125I]-Glucagon binding, SPA with WGA beads, 0.1% bacitracin; conditions: geometric mean, read-out: hGcgR Ki
T3 construct: expressed in transfected cells; crude membranes
How it was run: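 SPA competition binding with WGA beads on crude membranes from HEK293 cells stably expressing hGcgR. Buffer: 25 mM HEPES pH 7.4, 2.5 mM CaCl2, 1 mM MgCl2, 0.1% bacitracin, 0.003% Tween-20; 10-point 3-fold dilutions, NSB with 1 μM Gcg.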

T3 sequence (P47871 26-477): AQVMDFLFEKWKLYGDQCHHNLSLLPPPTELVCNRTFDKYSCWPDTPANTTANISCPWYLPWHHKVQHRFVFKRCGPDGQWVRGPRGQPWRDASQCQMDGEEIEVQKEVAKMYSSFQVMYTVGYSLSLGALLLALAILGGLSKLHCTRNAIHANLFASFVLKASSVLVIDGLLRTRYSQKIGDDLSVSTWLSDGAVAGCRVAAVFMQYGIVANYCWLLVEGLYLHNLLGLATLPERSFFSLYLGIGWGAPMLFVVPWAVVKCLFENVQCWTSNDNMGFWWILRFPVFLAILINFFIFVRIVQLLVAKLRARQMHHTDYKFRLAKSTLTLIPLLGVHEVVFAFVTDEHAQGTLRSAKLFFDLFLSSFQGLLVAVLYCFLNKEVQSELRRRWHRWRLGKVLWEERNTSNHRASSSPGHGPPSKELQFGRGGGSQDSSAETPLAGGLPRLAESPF
T2 sequence (P43220 24-463): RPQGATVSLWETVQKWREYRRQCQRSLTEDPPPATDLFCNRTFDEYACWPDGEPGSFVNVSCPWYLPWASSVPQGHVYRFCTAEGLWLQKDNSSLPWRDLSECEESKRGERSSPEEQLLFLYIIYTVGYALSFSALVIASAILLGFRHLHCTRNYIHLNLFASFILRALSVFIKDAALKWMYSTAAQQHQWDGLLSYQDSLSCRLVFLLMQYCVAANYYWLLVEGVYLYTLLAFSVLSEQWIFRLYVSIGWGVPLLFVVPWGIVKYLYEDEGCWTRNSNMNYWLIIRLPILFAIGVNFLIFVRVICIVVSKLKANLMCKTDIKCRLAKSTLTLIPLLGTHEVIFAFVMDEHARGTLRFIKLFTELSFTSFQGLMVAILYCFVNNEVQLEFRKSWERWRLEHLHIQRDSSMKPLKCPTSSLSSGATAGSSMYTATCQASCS
T1 sequence (P43220 24-463): as above

## CC[C@H](C)[C@H](NC(=O)[C@H](Cc1ccccc1)NC(=O)[C@@H](NC(=O)CNC(=O)[C@H](CCC(=O)O)NC(=O)C(C)(C)NC(=O)[C@@H](N)Cc1ccc(O)cc1)[C@@H](C)O)C(=O)N[C@@H](CO)C(=O)N[C@@H](CC(=O)O)C(=O)N[C@@H](Cc1ccc(O)cc1)C(=O)N[C@@H](CO)C(=O)N[C@H](C(=O)N[C@@](C)(CC(C)C)C(=O)N[C@@H](CC(C)C)C(=O)N[C@@H](CC(=O)O)C(=O)N[C@@H](CCCCN)C(=O)N[C@@H](CCCCNC(=O)COCCOCCNC(=O)COCCOCCNC(=O)CC[C@H](NC(=O)CCCCCCCCCCCCCCCCCCC(=O)O)C(=O)O)C(=O)N[C@@H](Cc1c[nH]cn1)C(=O)N[C@@H](CCC(N)=O)C(=O)NC(C)(C)C(=O)N[C@@H](CC(=O)O)C(=O)N[C@@H](Cc1ccccc1)C(=O)N[C@H](C(=O)N[C@@H](CCC(=O)O)C(=O)N[C@@H](Cc1c[nH]c2ccccc12)C(=O)N[C@@H](CC(C)C)C(=O)N[C@@H](CC(C)C)C(=O)N[C@@H](CCC(=O)O)C(=O)N[C@H](C(=O)NCC(=O)N1CCC[C@H]1C(=O)N[C@@H](CO)C(=O)N[C@@H](CO)C(=O)NCC(=O)N[C@@H](C)C(=O)N1CCC[C@H]1C(=O)N1CCC[C@H]1C(=O)N1CCC[C@H]1C(=O)N[C@@H](CO)C(N)=O)[C@@H](C)O)C(C)C)[C@@H](C)CC [Example 71] (H-Y[Aib]EGTFISDYSI[αMeL]LDKK([AEEA-AEEA-γGlu-C20 diacid])HQ[Aib]DFVEWLLETGPSSGAPPPS-NH2)
[1]
  EC50: > 5000 nM
[2]
  Ki: 347 nM
[3]
  Ki: 102 nM

## CC[C@H](C)[C@H](NC(=O)[C@H](CC(C)C)NC(=O)[C@@H](NC(=O)CNC(=O)[C@H](CCC(=O)O)NC(=O)C(C)(C)NC(=O)[C@@H](N)Cc1ccc(O)cc1)[C@@H](C)O)C(=O)N[C@@H](CO)C(=O)N[C@@H](CC(=O)O)C(=O)N[C@@H](Cc1ccc(O)cc1)C(=O)N[C@@H](CO)C(=O)N[C@H](C(=O)N[C@@](C)(CC(C)C)C(=O)N[C@@H](CC(C)C)C(=O)N[C@@H](CC(=O)O)C(=O)N[C@@H](CCCCN)C(=O)N[C@@H](CCCCNC(=O)COCCOCCNC(=O)COCCOCCNC(=O)CC[C@H](NC(=O)CCCCCCCCCCCCCCCCCCC(=O)O)C(=O)O)C(=O)N[C@@H](Cc1c[nH]cn1)C(=O)N[C@@H](CCC(N)=O)C(=O)NC(C)(C)C(=O)N[C@@H](CCC(=O)O)C(=O)N[C@@H](Cc1ccccc1)C(=O)N[C@H](C(=O)N[C@@H](CCC(=O)O)C(=O)N[C@@H](Cc1ccc(O)cc1)C(=O)N[C@@H](CC(C)C)C(=O)N[C@@H](CC(C)C)C(=O)N[C@@H](CCC(=O)O)C(=O)N[C@H](C(=O)NCC(=O)N1CCC[C@H]1C(=O)N[C@@H](CO)C(=O)N[C@@H](CO)C(=O)NCC(=O)N[C@@H](C)C(=O)N1CCC[C@H]1C(=O)N1CCC[C@H]1C(=O)N1CCC[C@H]1C(=O)N[C@@H](CO)C(N)=O)[C@@H](C)O)C(C)C)[C@@H](C)CC [Example 72] (H-Y[Aib]EGTLISDYSI[αMeL]LDKK([AEEA-AEEA-γGlu-C20 diacid])HQ[Aib]EFVEYLLETGPSSGAPPPS-NH2)
[1]
  EC50: > 5000 nM
[2]
  Ki: 437 nM
[3]
  Ki: 837 nM
